# Data from US9822336B2, “Blastoid, cell line based artificial blastocyst” (Universiteit Maastricht, priority 2013, dated 2017).
# How the values were obtained:
# Format in all cases: cell-based, mouse
# ES-TS cell clusters [1] = assay: Cavitation of ES-TS cell clusters (yield of cavitated blastoids); settings: for yield of cavitated blastoids / cavitation: FIG. 4h; for yield of blastoids cavitation: FIG. 4i, added to CHIR99021 3 uM, versus control with CHIR99021 3 uM only
# Experimental: FIG. 4c: […], The yield of cavitated blastoids is described by the percentage of ES-TS cell clusters that were cavitated after 96 hours of culture, thus forming an artificial blastocyst or blastoid. […]
# The efficiency of blastoid formation is measured as the percentage of cavitated structures with (1) an external cellular layer expressing the transcription factors CDX2, Eomes and GATA3 and (2) an internal cellular aggregate expressing the transcription factors Oct4 and Sox2 and at least partly Nanog.
# The formation of a cavity is assessed by the formation of a volume within the aggregate that is not occupied by cellular nucleus. The formation of a cavity is preferably assessed using the cross-sectional section of a cellular aggregate stained with a nuclear-specific dye (for example DAPI).
# • Double layer formation: the formation of an (at least) double layered cell aggregate with an external layer of TS cells and an inner layer of ES cells is evaluated using transgenic cell lines. Specifically, ES cells were transfected with Histone 2B and a Red Fluorescent Protein under the control of a cytomegalovirus promoter and clonally derived. The H2B-RFP ES cells are thus constitutively expressing a red fluorescence within their nucleus which allows for their tracking. • TS cells were derived from a mouse constitutively expressing Green Fluorescent Protein (GFP) under the control of a cytomegalovirus promoter in all cells. The GFP TS cells are thus expressing a green fluorescence in their cytoplasma which allows for their tracking. • The formation of a double-layered aggregate is thus assessed by observing a green outer layer of cells and a red inner layer of cells. The efficiency of engulfment is determined as the percentage of green-colored projection area (representing the TS cell layer) that overlaps with an artificial 3-pixel-wide ring drawn around the red-colored projection area (representing the inner aggregate of ES cells) after 24 hours of culturing the ES-TS cell clusters. The said efficiency of engulfment described in FIG. 4 represents the average value taken from approximately 200 ES-TS cell clusters. • Cavitation: The formation of a cavity is assessed by the formation of a volume within the aggregate that is not occupied by cellular nucleus. The formation of a cavity is preferably assessed using the cross-sectional section of a cellular aggregate stained with a nuclear-specific dye (for example DAPI). […] The expression of cdx2 is assessed as the number of GFP positive cells with a cdx2 positive nucleus per 10 μm microscopic section. The expression of the transcription factors Oct4 and Nanog is assessed by conventional immunocytochemistry in ES-TS aggregates including H2B-RFP expressing ES cells. The expression of Oct4 and Nanog is assessed as the number of H2B-RFP positive cells with an Oct4 or Nanog positive nucleus per 10 μm microscopic section. Pictoral Summary of the Procedure for Blastoid Formation: […]
# [2] = tested on: Cdx2 expression in trophoblast stem cells of ES-TS aggregates; assay: Cdx2 expression by CDX2 immunostaining; settings: CDX2 immunostaining (FIG. 4g)
# Experimental: • Double layer formation: the formation of an (at least) double layered cell aggregate with an external layer of TS cells and an inner layer of ES cells is evaluated using transgenic cell lines. Specifically, ES cells were transfected with Histone 2B and a Red Fluorescent Protein under the control of a cytomegalovirus promoter and clonally derived. The H2B-RFP ES cells are thus constitutively expressing a red fluorescence within their nucleus which allows for their tracking. • TS cells were derived from a mouse constitutively expressing Green Fluorescent Protein (GFP) under the control of a cytomegalovirus promoter in all cells. The GFP TS cells are thus expressing a green fluorescence in their cytoplasma which allows for their tracking. • The formation of a double-layered aggregate is thus assessed by observing a green outer layer of cells and a red inner layer of cells. The efficiency of engulfment is determined as the percentage of green-colored projection area (representing the TS cell layer) that overlaps with an artificial 3-pixel-wide ring drawn around the red-colored projection area (representing the inner aggregate of ES cells) after 24 hours of culturing the ES-TS cell clusters. […] The formation of a cavity is preferably assessed using the cross-sectional section of a cellular aggregate stained with a nuclear-specific dye (for example DAPI). […]
# [3] = tested on: inner cell mass (ICM) of blastoids; assay: Size of inner cell mass (ICM) in cavitated blastoids, projection area; settings: up to a concentration of 1000 μM (FIG. 4f)
# Excerpt: FIG. 4d: size of inner cell mass (ICM) as a function of the average number of ES-cells seeded per microwell. Size of ICM, measured as the projection area of the ES cell cluster inside the cavitated blastoid, increases with increasing numbers of ES cells seeded per microwell.
# The size of the inner cell mass (ICM) depends on the average number of ES-cells seeded, and increases with the number of ES-cells seeded per microwell as described in FIG. 4. The size as defined by its projection area is generally between 1000 and 5000 um^2, preferably between 2000 and 4500 um^2. The size is conveniently expressed by determining the projection area (in um^2) of the ICM through light microscopy.
# ES-TS cell clusters [4] = assay: Efficiency of engulfment during formation of ES-TS cell clusters; settings: at higher concentration of Y27632; after 24 hours of culture (FIG. 4a)
# Experimental: Mouse TS-cells were seeded at 17 cells/microwell in 150 μL B27N2 medium. After 20 minutes, 1 ml of B27N2 medium was added that included 10% FBS, Y27632 20 μM, 8Br-cAMP (1 mM), 007-AM (1 nM) and CHIR 3 μM, FGF4 15 ng/ml, Tgfb1 5 ng/ml, IGF2, 10 ng/ml, estradiol 10 ng/ml. The cells were placed in an incubator set at 37° Celsius to form the ES-TS cell cluster. • Double layer formation: the formation of an (at least) double layered cell aggregate with an external layer of TS cells and an inner layer of ES cells is evaluated using transgenic cell lines. […] The H2B-RFP ES cells are thus constitutively expressing a red fluorescence within their nucleus which allows for their tracking. • TS cells were derived from a mouse constitutively expressing Green Fluorescent Protein (GFP) under the control of a cytomegalovirus promoter in all cells. The GFP TS cells are thus expressing a green fluorescence in their cytoplasma which allows for their tracking. • The formation of a double-layered aggregate is thus assessed by observing a green outer layer of cells and a red inner layer of cells. […] The said efficiency of engulfment described in FIG. 4 represents the average value taken from approximately 200 ES-TS cell clusters. • Cavitation: The formation of a cavity is assessed by the formation of a volume within the aggregate that is not occupied by cellular nucleus. […]
compound,measurement,setting,value
"Cc1c[nH]c(-c2cnc(NCCNc3ccc(C#N)cn3)nc2-c2ccc(Cl)cc2Cl)n1 [CHIR99021, 6-{2-[4-(2,4-dichloro-phenyl)-5-(4-methyl-1H-imidazol-2-yl)-pyrimidin-2-ylamino]-ethylamino}-nicotinonitrile]",blastoid yield,ES-TS cell clusters [1]; CHIR99021 at 3 uM,10%
same,blastoid yield,ES-TS cell clusters [1]; CHIR99021 at 20 uM,~30%
same,yield of cavitated blastoids / cavitation,ES-TS cell clusters [1]; CHIR99021 at 3 uM,increases the yield of cavitated blastoids
same,yield of cavitated blastoids,ES-TS cell clusters [1]; increasing concentrations (FIG. 4e),positively correlate with an increase in the yield of cavitated blastoids
Oc1nc(-c2ccc(C(F)(F)F)cc2)nc2c1CSCC2 [XAV939],yield of cavitated blastoids / cavitation,ES-TS cell clusters [1]; CHIR99021 at 3 uM,prevents the cavitation of blastoids
CC(C)[C@H]1C(=O)N[C@H](CO)Cc2c[nH]c3cccc(c23)N1C [Indolactam V],yield of blastoids cavitation,ES-TS cell clusters [1],increase the yield of blastoids cavitation
same,yield of cavitation,"ES-TS cell clusters [1]; Indolactam V 0.1-10 uM, for example 1 uM",increases the yield of cavitation
IGF2: a protein and a growth factor known in the art to activate the Akt pathway,Cdx2 expression,[2],positively correlates with an increase of Cdx2 expression
Nc1ncnc2c1nc(Br)n2[C@@H]1O[C@@H]2COP(=O)(O)O[C@H]2[C@H]1O [8Br-cAMP],yield of cavitation,"ES-TS cell clusters [1]; 8Br-cAMP 0.1-10 mM, for example 1 mM",increases the yield of cavitation
same,yield of blastoids cavitation,ES-TS cell clusters [1],increase the yield of blastoids cavitation
same,size of ICM,[3],positively correlates with an increase in the size of ICM
"C[C@@H](N)[C@H]1CC[C@H](C(=O)Nc2ccncc2)CC1 [Y27632, (1R,4r)-4-((R)-1-aminoethyl)-N-(pyridin-4-yl)cyclohexanecarboxamide]",efficiency of engulfment,ES-TS cell clusters [4],increase in efficiency of engulfment
